Experimental data from patent US20260373119A1, “NOVEL COMPOUND, AND COMPOSITION FOR PREVENTING OR TREATING HER2-POSITIVE CANCER, COMPRISING SAME” (EWHA UNIVERSITY - INDUSTRY COLLABORATION FOUNDATION, priority 2022, published 2026).

Tests used:
[1] = pharmacokinetic profiling; assay type: in vivo
permeability = assay type: in vitro ADME
[2] = test system: c-PARP, c-caspase 7, bcl-2; experiment: pro- and anti-apoptotic marker levels; assay type: cell-based
Experimental: For western blot analysis, cells were seeded in a 6-well plate and lysed in 1×RIPA lysis buffer (Cell Signaling, USA) containing 1% 0.1 M [COMPOUND LEFT OUT] and 1% 100× protease inhibitor cocktail solution (Genedepot, USA). Total protein levels were standardized using the Pierce™ BCA Protein Assay Kit (Thermo Fisher Scientific, USA) and a microplate reader (Tecan Group Ltd., Switzerland). A total of 20 μg of protein was loaded onto a 10-15% SDS-PAGE acrylamide gel and transferred to a 0.2 μm PVDF membrane (Pall Life Science, USA). The membrane was blocked with 5% skim milk or 5% BSA, and the membrane was cultured with primary antibodies (purchased from Thermo Fisher, Cell Signaling, Santa Cruz, Novus, or MBL) at room temperature for 3 hours or overnight at 4 °C. The blot was washed three times with Tris-buffered saline containing 0.1% Tween20 (1×TBST) and incubated with an HRP-conjugated secondary antibody (GeneTex, USA). Protein bands were detected using ECL solution reagents (GE Healthcare, USA) and the LAS-3000 imaging system (Fuji Photo Film Co., Ltd., Japan), and captured images were analyzed using Multi-Gauge software (Fuji Photo Film Co. Ltd.). […]
Specifically, 5×10^5 NCI-N87 cells were seeded in 60 mm dishes and cultured until they reached 70-80% confluence. […] Cell cycle analysis was performed using a fluorescence-activated cell sorting (FACS) device (BD Biosciences, USA).

ErbB2 = ErbB2 (Homo sapiens, UniProt P04626); experiment: kinase profiling, ErbB2; assay type: biochemical; conditions: read-out: In vitro kinase inhibitory activity (%)
Chain of ErbB2 (P04626 676-1255 limits assumed): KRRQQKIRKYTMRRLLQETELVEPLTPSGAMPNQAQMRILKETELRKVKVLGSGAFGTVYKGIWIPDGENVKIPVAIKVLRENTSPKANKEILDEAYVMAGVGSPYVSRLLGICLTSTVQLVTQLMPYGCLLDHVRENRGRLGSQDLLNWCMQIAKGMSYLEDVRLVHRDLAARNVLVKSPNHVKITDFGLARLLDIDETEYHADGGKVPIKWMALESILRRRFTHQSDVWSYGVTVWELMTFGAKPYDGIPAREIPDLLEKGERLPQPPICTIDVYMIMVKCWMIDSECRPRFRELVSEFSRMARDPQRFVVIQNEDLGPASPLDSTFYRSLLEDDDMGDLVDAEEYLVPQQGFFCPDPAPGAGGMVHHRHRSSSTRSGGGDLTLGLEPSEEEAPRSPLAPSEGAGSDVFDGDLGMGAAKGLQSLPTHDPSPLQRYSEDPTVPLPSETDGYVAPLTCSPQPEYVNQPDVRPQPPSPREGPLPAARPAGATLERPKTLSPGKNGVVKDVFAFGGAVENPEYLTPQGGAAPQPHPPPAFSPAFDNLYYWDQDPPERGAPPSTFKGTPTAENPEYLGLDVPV
Experimental: Kinase inhibitory activity of the candidate compound at 10 μM and 25 μM was assessed using Eurofins Kinase Profiling Services. Inhibitory effects on c-RAF, EGFR, ErbB2, ErbB4, and PI3 kinase were analyzed according to the Kinase Profiler Service Assay protocol.

MED23-ELK1 PPI = molecular target: T1, MED23-ELK1 PPI (Homo sapiens, UniProt Q9ULK4); experiment: immunoprecipitation, MED23-ELK1 PPI; assay type: cell-based
T1 construct: co-immunoprecipitation of ELK1, probably endogenous
T1 sequence (Q9ULK4 whole entry): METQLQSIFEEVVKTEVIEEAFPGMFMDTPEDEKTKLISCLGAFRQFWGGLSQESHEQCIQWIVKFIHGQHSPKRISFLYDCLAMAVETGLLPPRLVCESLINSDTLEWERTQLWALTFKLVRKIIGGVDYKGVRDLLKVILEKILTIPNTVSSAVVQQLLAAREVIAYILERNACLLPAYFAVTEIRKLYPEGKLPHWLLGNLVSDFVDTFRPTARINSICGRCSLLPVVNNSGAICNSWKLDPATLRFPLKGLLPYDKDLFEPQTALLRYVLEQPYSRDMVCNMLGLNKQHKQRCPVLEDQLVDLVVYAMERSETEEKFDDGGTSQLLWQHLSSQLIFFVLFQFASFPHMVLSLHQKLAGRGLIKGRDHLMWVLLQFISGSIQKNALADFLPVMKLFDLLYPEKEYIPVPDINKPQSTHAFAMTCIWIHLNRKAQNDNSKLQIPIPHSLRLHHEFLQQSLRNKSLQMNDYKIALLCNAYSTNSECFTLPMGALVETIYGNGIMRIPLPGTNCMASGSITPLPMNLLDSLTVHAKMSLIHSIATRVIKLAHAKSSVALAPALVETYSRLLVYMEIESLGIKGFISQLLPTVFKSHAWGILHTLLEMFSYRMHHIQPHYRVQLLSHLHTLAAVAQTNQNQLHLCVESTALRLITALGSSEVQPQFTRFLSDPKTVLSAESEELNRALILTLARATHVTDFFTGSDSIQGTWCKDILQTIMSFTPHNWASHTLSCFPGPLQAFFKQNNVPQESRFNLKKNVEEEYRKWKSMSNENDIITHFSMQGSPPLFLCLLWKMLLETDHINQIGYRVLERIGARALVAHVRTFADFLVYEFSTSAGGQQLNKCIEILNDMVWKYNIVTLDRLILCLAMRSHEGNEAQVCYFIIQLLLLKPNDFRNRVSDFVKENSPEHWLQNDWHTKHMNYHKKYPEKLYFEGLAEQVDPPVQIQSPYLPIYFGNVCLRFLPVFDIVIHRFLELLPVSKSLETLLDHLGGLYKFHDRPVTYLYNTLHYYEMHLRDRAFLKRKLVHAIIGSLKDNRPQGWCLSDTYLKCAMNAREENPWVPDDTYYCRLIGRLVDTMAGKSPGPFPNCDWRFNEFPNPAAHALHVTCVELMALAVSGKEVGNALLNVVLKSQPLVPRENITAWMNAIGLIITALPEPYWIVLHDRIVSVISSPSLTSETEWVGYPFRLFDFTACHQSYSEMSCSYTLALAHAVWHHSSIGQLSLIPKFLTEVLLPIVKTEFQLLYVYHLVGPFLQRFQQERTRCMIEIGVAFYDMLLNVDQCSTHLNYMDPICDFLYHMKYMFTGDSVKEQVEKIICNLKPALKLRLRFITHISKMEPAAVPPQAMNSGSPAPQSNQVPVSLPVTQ
Experimental: NCI-N87 cells from a gastric cancer cell line were seeded in a 100 mm cell culture dish and cultured until they reached 60-70% confluence. The cultured cells were transfected with p3Xflag-myc-CMV26-empty or p3Xflag-myc-CMV26-MED23^WT plasmids using Lipofectamine® 2000 (Invitrogen, USA). After transfection, YK1 (5 μM) was added 12 hours post-transfection, and the cells were cultured for 12 hours. A total of 750 μg of cell lysate was incubated with 20 μL of FLAG-agarose bead slurry (Sigma Aldrich, USA) on a rotator at 4 °C for 4 hours. The sample was centrifuged at 12,000 rpm for 1 minute to precipitate the beads. After removing the supernatant, the remaining beads were washed three times with 200 μL of lysis buffer (RIPA).
After removing the final supernatant, the beads were eluted by boiling with 2× sample buffer at 98 °C for 5 minutes. The immunoprecipitated proteins were loaded, separated by SDS-PAGE, and analyzed by Western blotting.

[3] = test system: T47D (HER2-negative breast cancer cell line); experiment: antiproliferative effect, T47D; assay type: cell-based; conditions: Homo sapiens, 72 hours
HER2 protein = HER2 protein expression; assay type: cell-based; conditions: dose-dependent
Experimental: For western blot analysis, cells were seeded in a 6-well plate and lysed in 1×RIPA lysis buffer (Cell Signaling, USA) containing 1% 0.1 M [COMPOUND LEFT OUT] and 1% 100× protease inhibitor cocktail solution (Genedepot, USA). Total protein levels were standardized using the Pierce™ BCA Protein Assay Kit (Thermo Fisher Scientific, USA) and a microplate reader (Tecan Group Ltd., Switzerland). A total of 20 μg of protein was loaded onto a 10-15% SDS-PAGE acrylamide gel and transferred to a 0.2 μm PVDF membrane (Pall Life Science, USA). The membrane was blocked with 5% skim milk or 5% BSA, and the membrane was cultured with primary antibodies (purchased from Thermo Fisher, Cell Signaling, Santa Cruz, Novus, or MBL) at room temperature for 3 hours or overnight at 4 °C. The blot was washed three times with Tris-buffered saline containing 0.1% Tween20 (1×TBST) and incubated with an HRP-conjugated secondary antibody (GeneTex, USA). Protein bands were detected using ECL solution reagents (GE Healthcare, USA) and the LAS-3000 imaging system (Fuji Photo Film Co., Ltd., Japan), and captured images were analyzed using Multi-Gauge software (Fuji Photo Film Co. Ltd.). The preparation of cell lysates for subsequent analyses was performed using the same method as described for western blot analysis.

half-life T1/2 (IV) ([1]; intravenous): 9.74 ± 2.76 h | bioavailability (Ft) ([1]; intravenous and oral routes): 25.1% | permeability (permeability): reasonable | inhibition at 10 µM (ErbB2; ErbB2, 10 μM): 2% | inhibition at 25 µM (ErbB2; ErbB2, 25 μM): 0% | PPI inhibitory effect on MED23-ELK1 (MED23-ELK1 PPI): did not inhibit these PPIs | IC50 [3]: 9.99 ± 0.2 µM
SMILES: CC(=O)N1N=C(c2cccc(O)c2)CC1c1ccc(Cl)cc1 (stereo not shown) [Compound 15, 1-[5-(4-Chlorophenyl)-3-(3-hydroxyphenyl)-4,5-dihydropyrazol-1-yl]-ethanone]
anti-apoptotic marker bcl-2 [2]: reduced the levels of the anti-apoptotic marker bcl-2 | pro-apoptotic markers c-PARP and c-caspase 7 [2]: induced an increase in the pro-apoptotic markers c-PARP and c-caspase 7 | HER2 protein expression level (HER2 protein): significantly downregulate HER2 gene and protein expression levels in a dose-dependent manner
